According to PubChem BioAssay AID330 (DTP/NCI, 2004):
Several values for one entry are separate records, joined by “and”; a condition that tells them apart may be missing. Identical values can stand only once. Toxic doses and inconclusive results are not listed.

Tested on: P388 leukemia ip, CD2F1 mice, survival T/C
Assay: NCI In Vivo Anticancer Drug Screen. Data for tumor model P388 Leukemia (intraperitoneal) in CD2F1 (CDF1) mice
Conditions: endpoint: median survival time, higher = longer survival
Procedure, shortened: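 Mice carrying the transplanted tumor received test compound or vehicle. Survival was recorded in each group, and the value is the treated-group measurement divided by that of the vehicle-treated control group.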

[1] = dose: 50.0 mg/kg/injection, schedule: Q01DX005 (ip), vehicle: saline
[2] = dose: 50.0 mg/kg/injection, schedule: Q01DX005 (ip), vehicle: saline with Tween-80
[3] = dose: 100.0 mg/kg/injection, schedule: Q01DX005 (ip), vehicle: saline with Tween-80
[4] = dose: 200.0 mg/kg/injection, schedule: Q01DX005 (ip), vehicle: saline with Tween-80
[5] = dose: 60.0 mg/kg/injection, schedule: Q01DX005 (ip), vehicle: saline with Tween-80
[6] = dose: 120.0 mg/kg/injection, schedule: Q01DX005 (ip), vehicle: saline with Tween-80
[7] = dose: 240.0 mg/kg/injection, schedule: Q01DX005 (ip), vehicle: saline with Tween-80
[8] = dose: 50.0 mg/kg/injection, schedule: Q01DX009 (ip), vehicle: saline
[9] = dose: 50.0 mg/kg/injection, schedule: Q01DX005 (ip), vehicle: Klucel (hydroxypropylcellulose) (HPC)
[10] = dose: 100.0 mg/kg/injection, schedule: Q01DX005 (ip), vehicle: Klucel (hydroxypropylcellulose) (HPC)
[11] = dose: 200.0 mg/kg/injection, schedule: Q01DX005 (ip), vehicle: Klucel (hydroxypropylcellulose) (HPC)
[12] = dose: 100.0 mg/kg/injection, schedule: Q04DX003 (ip), vehicle: saline with Tween-80
[13] = dose: 100.0 mg/kg/injection, schedule: Q01DX001 (ip), vehicle: saline with Tween-80
[14] = dose: 200.0 mg/kg/injection, schedule: Q01DX001 (ip), vehicle: saline with Tween-80

Question: What does the source list for `O=C(Cn1ccc(O)cc1=O)N1CCOCC1`?
Answer: T/C (dose: 100.0 mg/kg/injection, schedule: Q04DX003 (ip), vehicle: water): 95 % of control; T/C (dose: 200.0 mg/kg/injection, schedule: Q04DX003 (ip), vehicle: water): 90 % of control; T/C (dose: 400.0 mg/kg/injection, schedule: Q04DX003 (ip), vehicle: water): 100 % of control

Question: How did the T/C (dose: 12.5 mg/kg/injection, schedule: Q01DX005 (ip), vehicle: saline) turn out when `CCCC(O)(CCC)C1=NCCN1` was run?
Answer: 103 % of control

Question: And the T/C (dose: 25.0 mg/kg/injection, schedule: Q01DX005 (ip), vehicle: saline)?
Answer: 102 % of control

Question: And the T/C [1]?
Answer: 99 % of control and 102 % of control

Question: How did the T/C [2] turn out when `NCCCCC(C(=O)NC(CO)C(=O)O)N(C(=O)OCc1ccccc1)C(=O)OCc1ccccc1` (configuration not stated) was run?
Answer: 101 % of control

Question: And the T/C [3]?
Answer: 101 % of control

Question: And the T/C [4]?
Answer: 90 % of control

Question: Which results are given for `COC(=O)c1c(C(N)=O)c(C)n(NC(=O)c2ccccc2)c1C`?
Answer: T/C [5]: 95 % of control; T/C [6]: 93 % of control; T/C [7]: 94 % of control

Question: For `[B-]1n2ccc[n+]2[B-]n2ccc[n+]21`, which T/C (dose: 15.0 mg/kg/injection, schedule: Q01DX005 (ip), vehicle: saline with Tween-80) is on record?
Answer: 100 % of control

Question: What about the T/C (dose: 30.0 mg/kg/injection, schedule: Q01DX005 (ip), vehicle: saline with Tween-80) of the same compound?
Answer: 100 % of control

Question: And the T/C [5]?
Answer: 98 % of control

Question: For `c1ccc2c(c1)ncn2Sn1cnc2ccccc21`, which T/C (dose: 17.5 mg/kg/injection, schedule: Q01DX005 (ip), vehicle: Klucel (hydroxypropylcellulose) (HPC)) is on record?
Answer: 102 % of control

Question: What about the T/C (dose: 35.0 mg/kg/injection, schedule: Q01DX005 (ip), vehicle: Klucel (hydroxypropylcellulose) (HPC)) of the same compound?
Answer: 118 % of control

Question: And the T/C (dose: 70.0 mg/kg/injection, schedule: Q01DX005 (ip), vehicle: Klucel (hydroxypropylcellulose) (HPC))?
Answer: 104 % of control

Question: With `CC(C)CCC(=O)c1ccoc1` as the compound, how does the T/C (dose: 0.46 mg/kg/injection, schedule: Q01DX005 (ip), vehicle: saline with Tween-80) read?
Answer: 103 % of control

Question: What about the T/C (dose: 0.93 mg/kg/injection, schedule: Q01DX005 (ip), vehicle: saline with Tween-80) of the same compound?
Answer: 97 % of control

Question: What about the T/C (dose: 1.87 mg/kg/injection, schedule: Q01DX005 (ip), vehicle: saline with Tween-80) of the same compound?
Answer: 97 % of control

Question: And the T/C (dose: 3.75 mg/kg/injection, schedule: Q01DX005 (ip), vehicle: saline with Tween-80)?
Answer: 89 % of control

Question: For `CC(C)(C)N1COCCOC1`, which T/C (dose: 100.0 mg/kg/injection, schedule: Q01DX009 (ip), vehicle: saline with Tween-80) is on record?
Answer: 118 % of control

Question: For `O=C(O)CNCCCCCCNCC(=O)O`, which T/C [1] is on record?
Answer: 98 % of control

Question: And the T/C (dose: 100.0 mg/kg/injection, schedule: Q01DX005 (ip), vehicle: saline)?
Answer: 103 % of control

Question: What about the T/C (dose: 200.0 mg/kg/injection, schedule: Q01DX005 (ip), vehicle: saline) of the same compound?
Answer: 106 % of control

Question: Which T/C [5] does the source give for `COc1ccc2c(c1)c(CO)c(CO)c[n+]2[O-]` here?
Answer: 100 % of control

Question: And the T/C [6]?
Answer: 96 % of control

Question: And the T/C [7]?
Answer: 102 % of control

Question: What does the source list for `C/C(COc1ccc([N+](=O)[O-])cc1)=N/NS(=O)(=O)c1cc(Cl)c(Cl)cc1Cl`?
Answer: T/C (dose: 12.5 mg/kg/injection, schedule: Q01DX009 (ip), vehicle: saline): 101 % of control; T/C (dose: 25.0 mg/kg/injection, schedule: Q01DX009 (ip), vehicle: saline): 102 % of control; T/C [8]: 99 % of control and 87 % of control

Question: What does the source list for `Nc1nc(CON2C(=O)c3ccccc3C2=O)cs1`?
Answer: T/C [9]: 97 % of control; T/C [10]: 99 % of control; T/C [11]: 103 % of control

Question: What does the source list for `c1ccc(CSc2ncnc3nc[nH]c23)cc1`?
Answer: T/C (dose: 12.5 mg/kg/injection, schedule: Q01DX010 (ip), vehicle: saline): 100 % of control; T/C (dose: 25.0 mg/kg/injection, schedule: Q01DX010 (ip), vehicle: saline): 100 % of control; T/C (dose: 50.0 mg/kg/injection, schedule: Q01DX010 (ip), vehicle: saline): 90 % of control; T/C (dose: 100.0 mg/kg/injection, schedule: Q01DX010 (ip), vehicle: saline): 90 % of control

Question: Which results are given for `C=C(OC(=O)CN(C)C)c1ccccc1`?
Answer: T/C [12]: 98 % of control; T/C (dose: 200.0 mg/kg/injection, schedule: Q04DX003 (ip), vehicle: saline with Tween-80): 100 % of control; T/C (dose: 400.0 mg/kg/injection, schedule: Q04DX003 (ip), vehicle: saline with Tween-80): 94 % of control

Question: What does the source list for `COC(=O)c1cc(=O)nc(N/N=C/c2ccccc2O)s1`?
Answer: T/C [9]: 98 % of control; T/C [10]: 100 % of control; T/C [11]: 108 % of control

Question: `O=C(O)c1ccc(NC(=O)C(Cl)Cl)cc1` was tested. Which T/C [9] did it give?
Answer: 97 % of control

Question: What about the T/C [10] of the same compound?
Answer: 102 % of control

Question: And the T/C [11]?
Answer: 100 % of control

Question: For `CC(C)(CO)[C@@H](O)C(=O)NCCC(=O)O`, which T/C [8] is on record?
Answer: 108 % of control

Question: And the T/C (dose: 100.0 mg/kg/injection, schedule: Q01DX009 (ip), vehicle: saline)?
Answer: 113 % of control

Question: And the T/C (dose: 200.0 mg/kg/injection, schedule: Q01DX009 (ip), vehicle: saline)?
Answer: 106 % of control

Question: With `O=C(Nc1ccc(C(=O)O)cc1)Nc1ccc(C(=O)O)cc1` as the compound, how does the T/C (dose: 100.0 mg/kg/injection, schedule: Q04DX002 (ip), vehicle: Klucel (hydroxypropylcellulose) (HPC)) read?
Answer: 99 % of control

Question: And the T/C (dose: 200.0 mg/kg/injection, schedule: Q04DX002 (ip), vehicle: Klucel (hydroxypropylcellulose) (HPC))?
Answer: 109 % of control

Question: With `COC1=C(c2c[nH]c3ccc(CC=C(C)C)cc23)C(=O)C(OC)=C(c2c[nH]c3ccc(CC=C(C)C)cc23)C1=O` as the compound, how does the T/C [2] read?
Answer: 89 % of control

Question: And the T/C [3]?
Answer: 89 % of control

Question: What about the T/C [4] of the same compound?
Answer: 94 % of control

Question: Which results are given for `CCCCOc1cccc2c(NCCCCNCCCNc3c4ccccc4nc4c(OCCCC)cccc34)c3ccccc3nc12`?
Answer: T/C (dose: 0.63 mg/kg/injection, schedule: Q01DX009 (ip), vehicle: other): 105 % of control; T/C (dose: 1.25 mg/kg/injection, schedule: Q01DX009 (ip), vehicle: other): 120 % of control; T/C (dose: 2.5 mg/kg/injection, schedule: Q01DX009 (ip), vehicle: other): 111 % of control; T/C (dose: 5.0 mg/kg/injection, schedule: Q01DX009 (ip), vehicle: other): 121 % of control

Question: How did the T/C [13] turn out when `O=C(O)c1ccnc(C(=O)O)c1` was run?
Answer: 100 % of control

Question: What about the T/C [14] of the same compound?
Answer: 90 % of control

Question: `Cc1ccc(S(=O)(=O)OC2CCC3(C)C(CCC4C3CCC3(C)C(C(C)CCCC(C)C)CCC43)C2)cc1` (configuration not stated) was tested. Which T/C (dose: 3.0 mg/kg/injection, schedule: Q01DX005 (ip), vehicle: Klucel (hydroxypropylcellulose) (HPC)) did it give?
Answer: 107 % of control

Question: And the T/C (dose: 6.0 mg/kg/injection, schedule: Q01DX005 (ip), vehicle: Klucel (hydroxypropylcellulose) (HPC))?
Answer: 117 % of control

Question: What about the T/C (dose: 12.5 mg/kg/injection, schedule: Q01DX005 (ip), vehicle: Klucel (hydroxypropylcellulose) (HPC)) of the same compound?
Answer: 100 % of control

Question: For `C[C@@H]1C(=O)OCC2=C3C[C@@H](CC[C@@]3(C)C=CC2=O)[C@H](C)C(=O)OCC2=C3C[C@H]1CC[C@@]3(C)C=CC2=O`, which T/C [9] is on record?
Answer: 100 % of control

Question: And the T/C [10]?
Answer: 101 % of control

Question: What about the T/C [11] of the same compound?
Answer: 95 % of control

Question: How did the T/C (dose: 100.0 mg/kg/injection, schedule: Q04DX002 (ip), vehicle: saline with Tween-80) turn out when `CC(=O)OC1Cc2c(cc3c4c(cccc24)N(C(C)=O)C3)N(C)C1` (configuration not stated) was run?
Answer: 105 % of control

Question: And the T/C (dose: 200.0 mg/kg/injection, schedule: Q04DX002 (ip), vehicle: saline with Tween-80)?
Answer: 108 % of control

Question: And the T/C (dose: 400.0 mg/kg/injection, schedule: Q04DX002 (ip), vehicle: saline with Tween-80)?
Answer: 100 % of control

Question: How did the T/C (dose: 25.0 mg/kg/injection, schedule: Q04DX003 (ip), vehicle: saline with Tween-80) turn out when `CCCCCCCCC(C(=O)c1ccccc1)=C(C(F)(F)F)C(F)(F)F` was run?
Answer: 100 % of control

Question: And the T/C (dose: 50.0 mg/kg/injection, schedule: Q04DX003 (ip), vehicle: saline with Tween-80)?
Answer: 95 % of control

Question: What about the T/C [12] of the same compound?
Answer: 104 % of control

Question: How did the T/C [13] turn out when `Cc1c(Br)sc2ccc3ccccc3c12` was run?
Answer: 103 % of control

Question: What about the T/C [14] of the same compound?
Answer: 106 % of control

Question: And the T/C (dose: 400.0 mg/kg/injection, schedule: Q01DX001 (ip), vehicle: saline with Tween-80)?
Answer: 103 % of control
